The text below walks through data of ChEMBL document CHEMBL6114957, “Exploring anticancer properties of new triazole-linked benzenesulfonamide derivatives against colorectal carcinoma: Synthesis, cytotoxicity, and in silico insights” (Bioorg Med Chem, 2025).

The subject of one data set is COLO 205. Put plainly: Cytotoxicity against human COLO 205 cells assessed as cell viability incubated for 48 hrs by MTT assay. The class given is functional, cell-based. As to conditions: COLO 205, 48 h.
Data set [1] concerns DLD-1. Put plainly: Cytotoxicity against human DLD-1 cells assessed as cell viability incubated for 48 hrs by MTT assay. The class given is functional, cell-based. Particulars: DLD-1, 48 h.
Data set [2] is described as follows: Cytotoxicity against human CCD-986Sk cells assessed as cell viability incubated for 48 hrs by MTT assay. The class given is toxicity, cell-based. On the technique in general: Formazan colour is commonly taken as a measure of viable cells.
For a further data set, the system named is HT-29. Put plainly: Cytotoxicity against human HT-29 cells assessed as cell viability incubated for 48 hrs by MTT assay. Format: functional, cell-based. Particulars: HT-29, 48 h.
Data set [3] relates to DLD-1. Put plainly: Induction of apoptosis in human DLD-1 cells assessed as early apoptotic cells at 10 uM incubated for 48 hrs by Annexin V staining based flow cytometry (reference value: 6.73 %). The class given is functional. For orientation: A flow cytometer gives signals particle by particle.
In data set [4] the test system is DLD-1. Put plainly: Induction of apoptosis in human DLD-1 cells assessed as necrotic cells at 10 uM incubated for 48 hrs by Annexin V staining based flow cytometry (reference value: 5.12 %). The class given is functional.
In data set [5] the test system is DLD-1. Description: Induction of apoptosis in human DLD-1 cells assessed as late apoptotic cells at 10 uM incubated for 48 hrs by Annexin V staining based flow cytometry (reference value: 6.19 %). Format: functional.
The subject of data set [6] is DLD-1. Put plainly: Induction of apoptosis in human DLD-1 cells assessed as viable cells at 10 uM incubated for 48 hrs by Annexin V staining based flow cytometry (reference value: 81.96 %). As to conditions: read-out: Activity. The class given is functional.
Data set [7] relates to DLD-1. Put plainly: Induction of apoptosis in human DLD-1 cells assessed as viable cells at 5 uM incubated for 48 hrs by Annexin V staining based flow cytometry (reference value: 81.96 %). Format: functional. Particulars: read-out: Activity.
In data set [8] the test system is DLD-1. Put plainly: Induction of apoptosis in human DLD-1 cells assessed as late apoptotic cells at 5 uM incubated for 48 hrs by Annexin V staining based flow cytometry (reference value: 6.19 %). Format: functional.
The subject of data set [9] is DLD-1. Put plainly: Induction of apoptosis in human DLD-1 cells assessed as necrotic cells at 5 uM incubated for 48 hrs by Annexin V staining based flow cytometry (reference value: 5.12 %). Format: functional.
In data set [10] the test system is DLD-1. Description: Induction of apoptosis in human DLD-1 cells assessed as early apoptotic cells at 5 uM incubated for 48 hrs by Annexin V staining based flow cytometry (reference value: 6.73 %). Format: functional.

Broadly, the IC50 is the concentration at which inhibition is half-maximal. Consider `CC(=O)c1ccc(OCc2cn(-c3ccc(S(N)(=O)=O)cc3)nn2)cc1`, for which the results for the IC50 in the data set on COLO 205, in the data set with DLD-1 [1] and with HT-29 were more than 200 µM, 123 µM and more than 200 µM, respectively. Also, the IC50 at 48 h in [2] was more than 200 µM.
For `NS(=O)(=O)c1ccc(-n2cc(COc3ccc(Cl)cc3Cl)nn2)cc1`, the IC50 in the data set on COLO 205 was 172 µM; with DLD-1 [1] it was 24.9 µM; in the data set on HT-29, 63.6 µM. Further, the IC50 at 48 h in data set [2] amounted to 78.2 µM.
In the case of `CCN(CC)c1ccc(C=O)c(OCc2cn(-c3ccc(S(N)(=O)=O)cc3)nn2)c1`, the results for the IC50 with COLO 205, with DLD-1 [1] and with HT-29 were 148 µM, 53.4 µM and 41.9 µM, respectively. In addition, the IC50 at 48 h in data set [2] is 185 µM.
For the molecule `NS(=O)(=O)c1ccc(-n2cc(COc3ccc([N+](=O)[O-])cc3C=O)nn2)cc1`, the results for the Activity in the data set with DLD-1 [3], in the data set with DLD-1 [4] and in the data set on DLD-1 [5] were 33.56%, 2.85% and 8.59%, respectively. The IC50 with COLO 205 is 132 µM; in the data set with DLD-1 [1], 11.8 µM; in the data set on HT-29, 9.35 µM. The viability at 10 µM with DLD-1 [6] was found to be 55%. Also, the IC50 at 48 h in [2] was more than 200 µM.
In the case of `Cc1ccc(OCc2cn(-c3ccc(S(N)(=O)=O)cc3)nn2)c([N+](=O)[O-])c1`, the half-maximal inhibitory concentration (IC50) with COLO 205 was 165 µM; with DLD-1 [1], 13 µM; in the data set on HT-29, 62.8 µM. Further, the IC50 at 48 h in [2] was 25.9 µM.
In the case of `CC(=O)c1ccccc1OCc1cn(-c2ccc(S(N)(=O)=O)cc2)nn1`, the IC50 in the data set with COLO 205 was found to be 160 µM; in the data set with DLD-1 [1], 51 µM; in the data set with HT-29, 80 µM. Also, in [2], the IC50 at 48 h was determined as 139 µM.
Take `O=c1[nH]cc(F)c(=O)[nH]1` [FLUOROURACIL]: the viability at 5 µM in the data set on DLD-1 [7] was determined as 60.9%. For the same molecule, the IC50 is 90.1 µM in the data set on COLO 205, 5.75 µM with DLD-1 [1] and 4.51 µM in the data set on HT-29. Besides, the figures for the Activity with DLD-1 [8], in the data set with DLD-1 [9] and in the data set with DLD-1 [10] were 9.91%, 3.73% and 25.5%, respectively. Moreover, in [2], the IC50 at 48 h amounted to 7.98 µM.
As for `CC(=O)c1cccc(OCc2cn(-c3ccc(S(N)(=O)=O)cc3)nn2)c1`, the IC50 in the data set on COLO 205 was 81.3 µM; with DLD-1 [1] it was 79.2 µM; in the data set with HT-29, 128 µM. The half-inhibitory concentration (IC50) at 48 h in data set [2] was more than 200 µM.
Turning to `NS(=O)(=O)c1ccc(-n2cc(COc3ccc(Br)cc3C=O)nn2)cc1`, the IC50 was more than 200 µM in the data set on COLO 205, 51.1 µM with DLD-1 [1] and more than 200 µM in the data set with HT-29. In addition, the IC50 at 48 h in [2] was more than 200 µM.
For `NS(=O)(=O)c1ccc(-n2cc(COc3ccc(C=O)cc3)nn2)cc1`, the IC50 in the data set with COLO 205 was 75.1 µM; in the data set on DLD-1 [1] it was 164 µM; in the data set with HT-29 it was more than 200 µM. Also, the IC50 at 48 h in data set [2] was more than 200 µM.
Consider `Cc1ccc(C(C)C)c(OCc2cn(-c3ccc(S(N)(=O)=O)cc3)nn2)c1`, for which the IC50 with COLO 205 was more than 200 µM; with DLD-1 [1] it was 35 µM; with HT-29, 33.2 µM. Besides, the IC50 at 48 h in data set [2] stood at 13.1 µM.
The matching figures for `NS(=O)(=O)c1ccc(-n2cc(COc3ccccc3C=O)nn2)cc1`: 147 µM, 52.1 µM, 65 µM and 96.3 µM.
Taken in the same sequence, the figures for `NS(=O)(=O)c1ccc(-n2cc(COc3ccc(C(=O)c4ccccc4)cc3)nn2)cc1` were more than 200 µM, 19 µM, 20.6 µM and 15.2 µM.
With `NS(=O)(=O)c1ccc(-n2cc(COc3ccc4ccccc4c3C=O)nn2)cc1`, the IC50 is more than 200 µM in the data set on COLO 205, 153 µM with DLD-1 [1] and more than 200 µM in the data set on HT-29. Further, the IC50 at 48 h in data set [2] is more than 200 µM.
With `Cc1ccc(C(C)C)cc1OCc1cn(-c2ccc(S(N)(=O)=O)cc2)nn1`, the IC50 is more than 200 µM in the data set on COLO 205, 16.6 µM in the data set with DLD-1 [1] and 35.9 µM in the data set with HT-29. For the same molecule, the concentration for half-maximal inhibition (IC50) at 48 h in data set [2] is 12.8 µM.
With `COc1cccc(C=O)c1OCc1cn(-c2ccc(S(N)(=O)=O)cc2)nn1`, the IC50 with COLO 205 is more than 200 µM; in the data set on DLD-1 [1], 180 µM; with HT-29, more than 200 µM. Moreover, the IC50 at 48 h in [2] is more than 200 µM.
Take `NS(=O)(=O)c1ccc(-n2cc(COc3cccc(C=O)c3)nn2)cc1`: the IC50 with COLO 205 was 40.9 µM; in the data set with DLD-1 [1] it was 122 µM; with HT-29 it was more than 200 µM. The IC50 at 48 h in [2] is more than 200 µM.
In the case of `CC(=O)c1cc(Cl)ccc1OCc1cn(-c2ccc(S(N)(=O)=O)cc2)nn1`, the IC50 with COLO 205 is more than 200 µM; in the data set on DLD-1 [1], 15.9 µM; with HT-29, 187 µM. The IC50 at 48 h in [2] stood at 51.3 µM.
Consider `NS(=O)(=O)c1ccc(-n2cc(COc3ccc([N+](=O)[O-])cc3)nn2)cc1`, for which the IC50 is 124 µM in the data set on COLO 205, 76.8 µM with DLD-1 [1] and 78 µM in the data set with HT-29. Besides, the IC50 at 48 h in data set [2] stood at 69.8 µM.
`C=CCc1ccc(OCc2cn(-c3ccc(S(N)(=O)=O)cc3)nn2)c(OC)c1`: the IC50 with COLO 205 is more than 200 µM; in the data set with DLD-1 [1], 49.8 µM; in the data set with HT-29, 75.3 µM. Further, the IC50 at 48 h in data set [2] stood at 134 µM.
